What all share (type): in vivo
In test [1] the test system is Xanthomonas orycea. The test can be described thus: Comparison of SDHI fungicides on Xanthomonas orycea / rice / preventative (bacterial blight of rice). To be noted: for Efficacy (%): rice cv. Balilla, preventative spray, 14 days incubation. The protocol:
3 week old rice plants cv. Balilla were treated with the formulated test compound in a spray chamber. Two days after application rice plants were infected by cutting the upper leaf level and the bacteria suspension applied on the cutting edges. After an incubation period of 14 days at 23° C. and 80% relative humidity, a visual assessment of the disease level was performed.

Test [2] relates to Xanthomonas campestris. Nature of the test: Effect on Xanthomonas campestris on Zinnia, foliar spray. The settings on record: for Efficacy 12 DAT* (%): 1 spray application, 12 days after treatment, rate per substance as in Table 3. The protocol:
Vegetatively mature zinnia plants were treated with pydiflumetofen treatments by foliar spray (for Xanthomonas or Pseudomonas spp.). One to two days post treatment, the plants were atomized with a bacterial suspension (1×10^8 cfu/mL, determined with a spectrometer) and maintained at 100% relative humidity for 24 to 48 hours to promote infection. The plants were then maintained in a greenhouse or outdoor shade structure and disease incidence and severity recorded, as well as plant health and fresh weight if applicable.

Test [3] concerns Xanthomonas perforans. The test can be described thus: Greenhouse test on tomato plants inoculated with Xanthomonas perforans (tomato bacterial spot), injured leaf area. The settings on record: up to 18 days after inoculation. The protocol: The experiment was carried out in a greenhouse in the Olericulture Sector of the Federal University of Goiás. The location has temperature and humidity control. Tomato seedlings cv. Totalle with two true leaves were transplanted into 1 L pots containing professional growing media. Two days after transplanting, the first application of the substances was carried out. Bion (acibenzolar-S-methyl, 25 g product/ha—12.5 g ai/ha), Miravis (pydiflumetofen, 0.60 kg product/ha—120 g ai/ha), Kocide (copper hydroxide, 1.50 kg product/ha) and Kasumin (kasugamycin, 2 L product/ha) were evaluated. The untreated control received only water. For application, the pots were placed on the floor and spraying was carried out using a spray device (having 6 nozzles with 0.5 m spacing between nozzles) with a pressurized CO2 sprayer and a spray volume of 300 L/ha.
The applications were carried out on days 1, 7 and 14. On day 9 (between the second and third applications), inoculation with a Xanthomonas perforans isolate was performed. The plants were uniformly sprayed once over all leaves with a suspension of the pathogen at a concentration of […] colony forming units per millilitre (cfu/mL). Three evaluations were performed at 6, 13 and 18 days after inoculation (DAI), and the percentage of injured leaf (area of leaf with bacterial spot) area was calculated.

Test [4] has as its system Ralstonia spp. Nature of the test: Effect on Ralstonia spp. on Geranium, drench, wilt. The protocol: Vegetatively mature geranium plants were treated with pydiflumetofen treatments by drench (Ralstonia spp.). One to two days post treatment, the inoculum was applied as a soil-drench. The plants were then maintained in a greenhouse or outdoor shade structure and disease incidence and severity were recorded.

Molecules are shown by their SMILES.

In the case of `Cn1cc(C(=O)Nc2ccccc2-c2cc(F)c(F)c(F)c2)c(C(F)F)n1` [Fluxapyroxad], the “Efficacy (%)” value in test [1] (6 Mg ai/L), in test [1] (20 Mg ai/L) and in test [1] (60 Mg ai/L) was 0% each time.

For the molecule `CC(C)c1ccc(Cl)cc1CN(C(=O)c1c(C(F)F)nn(C)c1F)C1CC1` [Isoflucypram], the “Efficacy (%)” value in test [1] (6 Mg ai/L), in test [1] (20 Mg ai/L) and in test [1] (60 Mg ai/L) was 0% throughout.

Consider `Cn1cc(C(=O)Nc2cccc3c2[C@@H]2CC[C@H]3C2=C(Cl)Cl)c(C(F)F)n1` (racemic) [Benzovindiflupyr, reference compound], for which the “Efficacy 12 DAT* (%)” value in test [2] was determined as 63%.

Turning to `O=C(Nc1ccccc1-c1ccc(Cl)cc1)c1cccnc1Cl` [Boscalid], the “Efficacy (%)” value in test [1] (6 Mg ai/L), in test [1] (20 Mg ai/L) and in test [1] (60 Mg ai/L) was 0% throughout.

Consider `CON(C(=O)c1cn(C)nc1C(F)F)C(C)Cc1c(Cl)cc(Cl)cc1Cl` (centres unmarked) [Pydiflumetofen, 3-(difluoromethyl)-N-methoxy-1-methyl-N-[1-methyl-2-(2,4,6-trichloro-phenyl)ethyl]-1H-pyrazole-4-carboxamide], for which the “control of Xanthomonas perforans (in words)” value in test [3] was “good control”. In addition, the “control or suppression of Ralstonia spp. (in words)” value in test [4] is recorded as “control or suppression”. Also, the “% Wilt 14 DAT” value in test [4] (14 DAT) worked out at 3.5%. For the same molecule, the “% efficacity vs. inoculated check, 14 DAT” value in test [4] (14 DAT) is listed as 84%. The “% Wilt 28 DAT” value in test [4] (28 DAT) came out at 18%. Further, the “% efficacity vs. inoculated check, 28 DAT” value in test [4] (28 DAT) is given as 87%. Besides, the “Efficacy 12 DAT* (%)” value in test [2] is 84%. In addition, the “control of Xanthomonas campestris (in words)” value in test [2] (spray) was “good control”. The figures for the “control of Xanthomonas orycea (in words)” value in test [1] (6 mg ai/L) and in test [1] (20 to 60 mg ai/L) were “marginal effect” and “good control”, respectively. In addition, the results for the “Efficacy (%)” value in test [1] (6 Mg ai/L), in test [1] (20 Mg ai/L) and in test [1] (60 Mg ai/L) were 13%, 72% and 99%, respectively.

The values above are taken from patent publication US20240397947A1 (priority 2021, published 2024).
